Experiment [1] deals with T-cell factor (TCF)-luciferase reporter using Wnt pathway as index. In words: Inhibitory activity against TCF-luciferase reporter using Wnt pathway as index (DLD-1/TCF-Luc cells). The format is cell-based, human. The note with it: Homo sapiens, read-out: Inhibition ratio (%) at 1 μmol/L. The essentials:
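Human colorectal DLD-1 cells stably carrying a TCF-responsive luciferase reporter (pGL4.27) were exposed to test compound for 18 h at 37 °C. Luciferase luminescence read; % inhibition calculated relative to control and blank wells, reported at 1 μmol/L.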
(In general: Reporter assays use an easily measured gene product as a stand-in for the process of interest.)

Experiment [2] has as its target T1, tankyrase-2 (Homo sapiens, UniProt Q9H2K2).
T1 construct: purchased BPS Bioscience, Inc. 80566
T1 sequence (Q9H2K2 1-1166): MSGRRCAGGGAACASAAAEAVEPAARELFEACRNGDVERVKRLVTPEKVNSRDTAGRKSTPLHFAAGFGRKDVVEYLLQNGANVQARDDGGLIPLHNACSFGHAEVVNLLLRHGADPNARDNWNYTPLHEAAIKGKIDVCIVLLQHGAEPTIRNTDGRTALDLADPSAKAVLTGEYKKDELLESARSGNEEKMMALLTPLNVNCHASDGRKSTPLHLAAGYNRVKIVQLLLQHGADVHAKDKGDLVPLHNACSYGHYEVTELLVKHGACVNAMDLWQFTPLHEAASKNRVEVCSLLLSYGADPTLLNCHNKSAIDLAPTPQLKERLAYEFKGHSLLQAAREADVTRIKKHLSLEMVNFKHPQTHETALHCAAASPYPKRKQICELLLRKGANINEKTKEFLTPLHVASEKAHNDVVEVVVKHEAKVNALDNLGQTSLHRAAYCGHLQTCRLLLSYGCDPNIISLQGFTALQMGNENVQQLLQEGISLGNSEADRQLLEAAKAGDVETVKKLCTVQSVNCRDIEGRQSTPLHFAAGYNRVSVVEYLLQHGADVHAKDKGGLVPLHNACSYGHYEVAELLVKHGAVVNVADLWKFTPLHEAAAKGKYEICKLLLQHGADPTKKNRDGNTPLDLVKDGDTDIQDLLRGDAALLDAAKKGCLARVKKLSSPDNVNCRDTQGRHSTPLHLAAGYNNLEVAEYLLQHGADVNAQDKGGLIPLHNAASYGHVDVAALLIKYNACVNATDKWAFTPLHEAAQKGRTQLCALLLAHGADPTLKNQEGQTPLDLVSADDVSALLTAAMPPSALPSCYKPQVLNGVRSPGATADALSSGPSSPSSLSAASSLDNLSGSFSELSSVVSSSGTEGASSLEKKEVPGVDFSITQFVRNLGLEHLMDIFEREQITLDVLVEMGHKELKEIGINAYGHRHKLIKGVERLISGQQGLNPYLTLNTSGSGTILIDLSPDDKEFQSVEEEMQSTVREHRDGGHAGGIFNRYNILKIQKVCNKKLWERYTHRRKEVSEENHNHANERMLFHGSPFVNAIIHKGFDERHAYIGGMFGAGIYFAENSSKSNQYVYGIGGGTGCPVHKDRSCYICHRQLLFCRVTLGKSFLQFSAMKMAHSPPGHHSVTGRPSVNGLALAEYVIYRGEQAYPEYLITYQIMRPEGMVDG
The experiment can be described thus: Tankyrase-2 enzyme inhibition test (Tankyrase-2 Chemiluminescent Assay Kit). The note with it: autoribosylation of GST-tankyrase-2 fusion protein, chemiluminescence. The format is biochemical. As for the experimental part: Test Example 2: Tankyrase-2 Enzyme Inhibition Test
The enzyme activity of tankyrase-2 was evaluated using Tankyrase-2 Chemiluminescent Assay Kit (BPS Bioscience, Inc., Catalog No. 80566). The Tankyrase-2 Chemiluminescent Assay Kit is a kit for evaluating the enzyme activity of tankyrase-2 using autoribosylation of glutathione-S-transferase (GST)-tankyrase-2 fusion protein as an index. All the experimental materials except for PBS (PBST) buffer containing phosphate-buffered saline (PBS) and 0.05% Tween 20 are all included in the kit. The GST-tankyrase-2 enzyme diluted with 50 μL of 1× tankyrase buffer was added to the wells of a 96-well plate coated with glutathione. After the plate was left to stand overnight at 4° C., the plate was washed 3 times with the PBST buffer. 150 μL of blocking buffer was added thereto, and the plate was left to stand at room temperature for 30 minutes to block the wells. The plate was washed 3 times with the PBST buffer. Before the ribosylation reaction, an assay mixture containing a biotinylated substrate and a test compound diluted with 1× tankyrase buffer were mixed, whereby a reaction mixture was prepared. In order to start the ribosylation reaction, 50 μL of the reaction mixture was added to the wells. In a blank well, 1× tankyrase buffer was added in place of the reaction mixture containing a biotinylated substrate. The plate was left to stand at 30° C. for 1 hour. After the reaction, the plate was washed 3 times with the PBST buffer. Streptavidin-horseradish peroxidase (HRP) was diluted to 50-fold with the blocking buffer. The diluted streptavidin-HRP was added to the wells, and the plate was left to stand at room temperature for 30 minutes. The plate was washed 3 times with the PBST buffer. Immediately before use, 50 μL of the HRP chemiluminescent substrate A and 50 μL of the HRP chemiluminescent substrate B were mixed and 100 μL of the resulting mixture was added to the wells. The chemiluminescence was measured using a chemiluminescence measuring apparatus. The inhibition ratio was obtained according to the following formula 2. [Math. 2] Inhibition ratio (%)=100−{(chemiluminescence intensity when test compound was added)−(chemiluminescence intensity of blank)}/{(chemiluminescence intensity of control)−(chemiluminescence intensity of blank)}×100 Formula 2

Where [3] appears, read: 1 μmol/L, DLD-1/TCF-Luc cells, luciferase activity after 18 hours.

Molecules are shown by their SMILES. Like-named read-outs stand apart in the source and are kept apart here.

As to `COc1cc2ncnc(N3CCC(O)(CN4Cc5ccccc5N(c5ccnc(C#N)c5)C4=O)CC3)c2cc1OC` [Compound 18, 4-(3-{[1-(6,7-Dimethoxyquinazolin-4-yl)-4-hydroxypiperidin-4-yl]methyl}-2-oxo-3,4-dihydroquinazolin-1(2H)-yl)picolinonitrile], in experiment [1] (setting [3]), the inhibition at 1 µM came out at 80%. The “Inhibition ratio (%) at 1 μmol/L” value in experiment [2] is reported as 79%.
In the case of `N#Cc1cc(N2C(=O)N(CC3CCN(c4c(C(N)=O)ccnc4F)CC3)Cc3ccccc32)ccn1` [Compound 40, 3-(4-{[1-(2-Cyanopyridin-4-yl)-2-oxo-1,2-dihydroquinazolin-3(4H)-yl]methyl}piperidin-1-yl)-2-fluoroisonicotinamide], in experiment [1] (DLD-1, 18 h), the inhibition at 1 µM was 78%. Moreover, in experiment [2], the “Inhibition ratio (%) at 1 μmol/L” value is reported as 93%.
For `N#Cc1cccc(N2C(=O)N(CC3CCN(c4ncnc5cc(C(=O)O)ccc45)CC3)Cc3ccccc32)c1` [Compound 25, 4-(4-{[1-(3-Cyanophenyl)-2-oxo-1,2-dihydroquinazolin-3(4H)-yl]methyl}piperidin-1-yl)quinazoline-7-carboxylic acid], in that order: 86% and 81%.
On to `COc1cc2ncnc(N3CCC(CN4Cc5ccccc5N(c5cccc(S(N)(=O)=O)c5)C4=O)CC3)c2cc1OC` [Compound 13, 3-(3-{[1-(6,7-Dimethoxyquinazolin-4-yl)piperidin-4-yl]methyl}-2-oxo-3,4-dihydroquinazolin-1(2H)-yl)benzenesulfonamide], for which, in experiment [1] (setting [3]), the inhibition at 1 µM worked out at 80%. The “Inhibition ratio (%) at 1 μmol/L” value in experiment [2] was 89%.
For `CC(=O)Nc1ccc2ncnc(N3CCC(CN4Cc5cccnc5N(c5ccnc(C#N)c5)C4=O)CC3)c2c1` [Compound 50, N-[4-(4-{[1-(2-Cyanopyridin-4-yl)-2-oxo-1,2-dihydropyrido[2,3-d]pyrimidin-3(4H)-yl]methyl}piperidin-1-yl)quinazolin-6-yl]acetamide], the inhibition at 1 µM in experiment [1] (setting [3]) is 87%. For the same compound, the “Inhibition ratio (%) at 1 μmol/L” value in experiment [2] is listed as 82%.
For the compound `COc1cc2ncnc(N3CCC(CN4Cc5ccncc5N(c5ccnc(C#N)c5)C4=O)CC3)c2cc1OC` [Compound 21, 4-(3-{[1-(6,7-Dimethoxyquinazolin-4-yl)piperidin-4-yl]methyl}-2-oxo-3,4-dihydropyrido[3,4-d]pyrimidin-1(2H)-yl)picolinonitrile], the inhibition at 1 µM in experiment [1] (setting [3]) is 76%. The “Inhibition ratio (%) at 1 μmol/L” value in experiment [2] is 93%.
Take `N#Cc1cc(N2C(=O)N(CC3CCN(c4cccc5n[nH]c(=O)n45)CC3)Cc3ccccc32)ccn1` [Compound 38, 4-(2-Oxo-3-{[1-(3-oxo-2,3-dihydro-[1,2,4]triazolo[4,3-a]pyridin-5-yl)piperidin-4-yl]methyl}-3,4-dihydroquinazolin-1(2H)-yl)picolinonitrile]: the inhibition at 1 µM in experiment [1] (DLD-1, 18 h) stood at 89%. Besides, the “Inhibition ratio (%) at 1 μmol/L” value in experiment [2] came out at 94%.
The corresponding values for `N#Cc1cc(N2C(=O)N(CC3CCN(c4ncnc5cc(N)cnc45)CC3)Cc3ccccc32)ccn1` [Compound 41, 4-(3-{[1-(7-Aminopyrido[3,2-d]pyrimidin-4-yl)piperidin-4-yl]methyl}-2-oxo-3,4-dihydroquinazolin-1(2H)-yl)picolinonitrile] are 81% and 92%.
Turning to `COc1ccc2c(c1)CN(CC1CCN(c3nccc4nc[nH]c(=O)c34)CC1)C(=O)N2c1ccnc(C(N)=O)c1` [Compound 48, 4-(6-Methoxy-2-oxo-3-{[1-(4-oxo-3,4-dihydropyrido[4,3-d]pyrimidin-5-yl)piperidin-4-yl]methyl}-3,4-dihydroquinazolin-1(2H)-yl)picolinamide], the inhibition at 1 µM in experiment [1] (setting [3]) was 84%. Moreover, the “Inhibition ratio (%) at 1 μmol/L” value in experiment [2] came out at 93%.
As to `COc1cc2ncnc(N3CCC(CN4Cc5ccccc5N(C5CCOCC5)C4=O)CC3)c2cc1OC` [Compound 16, 3-{[1-(6,7-Dimethoxyquinazolin-4-yl)piperidin-4-yl]methyl}-1-(tetrahydro-2H-pyran-4-yl)-3,4-dihydroquinazolin-2(1H)-one], in experiment [1] (setting [3]), the inhibition at 1 µM stood at 63%. In addition, the “Inhibition ratio (%) at 1 μmol/L” value in experiment [2] is 71%.
The corresponding values for `COc1cc2ncnc(N3CCC(CN4Cc5ccccc5N(c5c[nH]c(=O)c(C#N)c5)C4=O)CC3)c2cc1OC` [Compound 12, 5-(3-{[1-(6,7-Dimethoxyquinazolin-4-yl)piperidin-4-yl]methyl}-2-oxo-3,4-dihydroquinazolin-1(2H)-yl)-2-oxo-1,2-dihydropyridine-3-carbonitrile] are 80% and 88%.
As for `COc1cc2ncnc(N3CCC(CN4Cc5ccccc5N(c5cccc([N+](=O)[O-])c5)C4=O)CC3)c2cc1OC` [Compound 8, 3-{[1-(6,7-Dimethoxyquinazolin-4-yl)piperidin-4-yl]methyl}-1-(3-nitrophenyl)-3,4-dihydroquinazolin-2(1H)-one], in experiment [1] (DLD-1, 18 h), the inhibition at 1 µM is 73%. Further, in experiment [2], the “Inhibition ratio (%) at 1 μmol/L” value was found to be 90%.
For `COc1cc2ncnc(N3CCC(CN4Cc5ccccc5N(c5ccnc(C#N)c5)C4=O)CC3)c2cc1OC` [Compound 9, 4-(3-{[1-(6,7-Dimethoxyquinazolin-4-yl)piperidin-4-yl]methyl}-2-oxo-3,4-dihydroquinazolin-1(2H)-yl)picolinonitrile], in that order: 74% and 91%.

The record behind these values is US9771351B2, “Wnt signaling inhibitor” (KYOWA HAKKO KIRIN CO., LTD., priority 2013, dated 2017).
